Where two headings read alike, the source gives them in different places.
Columns and labels:
[1] = biological target: T1, A2BARs in Jurkat-T cell membranes (Homo sapiens, UniProt P29275); assay type: binding; conditions: vs [3H]PSB-603 (0.3 nM); Jurkat-T cells, A2B ≥ A2A; read-out: Ki ± SEM
T1 construct: Human Jurkat-T cells natively expressing A2A and A2BARs; endogenous in cells; host or cells: Jurkat-T
Experimental: The preparation of Jurkat-T cell membranes was performed as follows: a Jurkat-T cell suspension was centrifuged in 50 ml falcon tubes at 200 g, 4° C, 5 min. The supernatant was discarded and the cell pellets were quickly frozen at –80° C. The defrosted pellets were then resuspended in ice-cold 25 mM Tris-buffer, 0.32 M sucrose, 1 mM ethylenediaminetetraacetic acid (EDTA), 0.1 mM phenylmethanesulfonylfluoride (PMSF), pH 7.4, and homogenized with an Ultra-Turrax (30 s on ice). The homogenate was centrifuged for 10 min at 1000 g at 4° C. The resulting pellets were discarded and the supernatant was centrifuged for 1 h at 48.000 g at 4° C. Pellets containing the membranes were resuspended in aqua bidest., homogenized with an Ultra-Turrax (30 s on ice) and centrifuged under the same conditions. The supernantant was discarded and the pellets were resuspended in 50 mM Tris-buffer, pH 7.4 and homogenized with a glass Teflon homogenizer on ice. The resuspended and homogenzied pellets were aliquoted and stored at –80° C until use.
After an incubation time of 60 min at rt, the assay mixture was filtered through GF/B glass fiber filters. Washing buffer: 50 mM Tris-HCl buffer, 0.1% bovine serum albumin (BSA), pH 7.4.

[2] = biological target: T2, A2BARs in HeLa cell membranes (Homo sapiens, UniProt P29275); assay type: binding; conditions: vs [3H]PSB-603 (0.3 nM); HeLa cells, A2B ≥ A2A; read-out: Ki ± SEM
T2 construct: HeLa cells natively expressing human A2A and A2BARs; endogenous in cells; host or cells: HeLa
Experimental: (§4) The preparations of CHO and HeLa membranes recombinantly (or natively) expressing human A2A and/or A2BAR subtypes were performed as previously described [5]. Membranes from HEK-A2B or A2A cells, which were used for some of the radioligand competition binding studies, were purchased from Perkin Elmer (Waltham, USA). […] The protein content of all membrane preparations was determined with the Lowry method [58].

[3] = biological target: T3, human A2AAR (Homo sapiens, UniProt P29274); assay: cAMP accumulation assay in CHO-A2A cells; assay type: cell-based
T3 construct: expressed in transfected cells
T3 sequence (P29274 whole entry): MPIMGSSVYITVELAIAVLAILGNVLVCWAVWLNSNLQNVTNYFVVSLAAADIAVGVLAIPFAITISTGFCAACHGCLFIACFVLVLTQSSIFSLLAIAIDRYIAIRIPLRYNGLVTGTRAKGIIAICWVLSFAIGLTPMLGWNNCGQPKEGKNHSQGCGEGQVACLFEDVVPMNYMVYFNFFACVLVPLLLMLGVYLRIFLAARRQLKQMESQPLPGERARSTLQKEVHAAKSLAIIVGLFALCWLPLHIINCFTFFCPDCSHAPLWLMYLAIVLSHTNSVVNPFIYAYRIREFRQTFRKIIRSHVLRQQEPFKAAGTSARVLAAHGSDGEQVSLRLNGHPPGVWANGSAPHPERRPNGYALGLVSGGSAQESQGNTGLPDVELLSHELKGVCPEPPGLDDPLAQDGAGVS
Experimental: (§1) The determination of cAMP accumulation in recombinant CHO and in Jurkat-T cells was performed as previously described.

[4] = biological target: T4, human A2AAR and A2BAR in HEK293T cells (Homo sapiens, UniProt P29274+P29275); assay: cAMP assay at HEK-A2A cells transiently transfected with increasing amounts of A2BAR; assay type: cell-based; conditions: 100 nM agonist, A2BAR cDNA 0.25–1.5 µg
T4 construct: expressed in transfected cells; host or cells: HEK293T
T4 sequence (P29274 whole entry, one chain of several): as the sequence (P29274 whole entry) above
Experimental: HEK293T cells were transiently transfected with the corresponding cDNA (pcDNA3.1+-hA2B, pcDNA3.1+-hA2A) by the polyethylenimine (Sigma) method [62]. The determination of AR-induced cAMP accumulation in HEK293T cells transiently expressing A2A and A2BARs was performed as previously described [62].

[5] = biological target: T4, human A2AAR and A2BAR in HEK293T cells; assay: Dynamic mass redistribution (DMR) assay in HEK293T cells transfected with A2A and A2BAR cDNA; assay type: cell-based; conditions: 100 nM agonist
Experimental: In brief, 24 h before the assay, cells were seeded at a density of 7,500 cells per well in 384-well sensor microplates with 40 µl of growth medium and cultured for 24 h (37° C, 5 % CO2) to obtain 70–80% confluent monolayers. […] Hereafter, the sensor plate was scanned and a baseline optical signature was recorded before adding 10 µl of test compound dissolved in assay buffer containing 0.1% DMSO and DMR responses were monitored for at least 8,000 s using an EnSpire® Multimode Plate Reader (PerkinElmer, Waltham, MA, USA) by a label-free technology. Data were analyzed using EnSpire Workstation Software v 4.10.

[6] = biological target: T5, A2A and A2BARs natively expressed in Jurkat-T cells (Homo sapiens, UniProt P29274+P29275); parameters: method as in ref [15] (a number printed in a supplementary file, which may have a reference list of its own: not looked up in the article's list); conditions: cAMP accumulation, up to 10 µM, ref [15]; cited from earlier work
T5 sequence (P29274 whole entry, one chain of several): as the sequence (P29274 whole entry) above

[7] = test system: HEK293 (native) cells, A2B ≥ A2A; conditions: cited from earlier work
[8] = test system: HEK-A2B cells, A2B ≥ A2A; conditions: cited from earlier work
[9] = test system: T24 human bladder carcinoma cells; conditions: T24 human bladder carcinoma, cited from earlier work
[10] = test system: Human prostatic carcinoma cells PC-3; parameters: method as in Wei Q, et al. Purinergic Signal. 2013; 9: 271-280. [23]; conditions: et al. Purinergic Signal. 2013, 9: 271-280. [23], cited from earlier work
[11] = test system: prostate cancer cell lines (A2B > A2A); conditions: three prostate cancer cell lines (A2B > A2A); ref [13]; cited from earlier work
[12] = biological target: T6, human A2BAR (Homo sapiens, UniProt P29275); parameters: expressed in transfected cells; conditions: vs [3H]PSB-603 (0.3 nM); A2BAR expressing HEK or CHO membranes; ref [14]; read-out: Ki ± SEM; cited from earlier work
T6 sequence (P29275 1-332): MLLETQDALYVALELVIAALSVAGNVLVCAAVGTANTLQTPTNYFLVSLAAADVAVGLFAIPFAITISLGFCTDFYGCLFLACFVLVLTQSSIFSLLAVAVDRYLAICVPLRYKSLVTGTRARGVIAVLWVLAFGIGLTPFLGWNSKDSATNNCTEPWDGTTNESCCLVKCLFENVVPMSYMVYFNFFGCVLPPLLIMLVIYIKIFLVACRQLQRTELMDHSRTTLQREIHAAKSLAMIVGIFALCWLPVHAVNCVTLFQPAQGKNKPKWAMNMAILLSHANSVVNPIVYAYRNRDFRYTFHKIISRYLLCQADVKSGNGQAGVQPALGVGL

[13] = biological target: T6, human A2BAR; parameters: expressed in transfected cells; conditions: cAMP accumulation; CHO-A2B; ref [13]; cited from earlier work
[14] = biological target: T3, human A2AAR; assay type: binding
Experimental: The preparations of CHO and HeLa membranes recombinantly (or natively) expressing human A2A and/or A2BAR subtypes were performed as previously described [5]. Membranes from HEK-A2B or A2A cells, which were used for some of the radioligand competition binding studies, were purchased from Perkin Elmer (Waltham, USA). The preparation of Jurkat-T cell membranes was performed as follows: a Jurkat-T cell suspension was centrifuged in 50 ml falcon tubes at 200 g, 4° C, 5 min. The supernatant was discarded and the cell pellets were quickly frozen at –80° C. The defrosted pellets were then resuspended in ice-cold 25 mM Tris-buffer, 0.32 M sucrose, 1 mM ethylenediaminetetraacetic acid (EDTA), 0.1 mM phenylmethanesulfonylfluoride (PMSF), pH 7.4, and homogenized with an Ultra-Turrax (30 s on ice). The homogenate was centrifuged for 10 min at 1000 g at 4° C. The resulting pellets were discarded and the supernatant was centrifuged for 1 h at 48.000 g at 4° C. Pellets containing the membranes were resuspended in aqua bidest., homogenized with an Ultra-Turrax (30 s on ice) and centrifuged under the same conditions. The supernantant was discarded and the pellets were resuspended in 50 mM Tris-buffer, pH 7.4 and homogenized with a glass Teflon homogenizer on ice. […] The protein content of all membrane preparations was determined with the Lowry method [58].

[15] = biological target: T3, human A2AAR; conditions: vs [3H]MSX-2 (1 nM), A2AAR expressing HEK or CHO membranes, read-out: Ki ± SEM, cited from earlier work
[16] = biological target: T6, human A2BAR; assay: biochemical
Experimental: as §4

[17] = biological target: T6, human A2BAR; assay: cell-based
Experimental: as §1

[18] = biological target: T5, A2A and A2BARs natively expressed in Jurkat-T cells; conditions: read-out: KB-value ± SEM, cAMP accumulation, antagonist potency versus NECA
Experimental: as §1

[19] = test system: isolated perfused mouse heart; conditions: A2B knockout vs wildtype mice, ref [51]; cited from earlier work
[20] = test system: CHO-K1 cell membranes (non-transfected); assay: Radioligand affinity (saturation or homologous competition) at CHO cells; assay type: binding, Chinese hamster
Experimental: (§2) Radioligand receptor binding experiments at membrane preparation of native (HeLa) and recombinant cells (CHO- or HEK cells recombinantly expressing A2A and/or A2BARs) using the A2B-selective antagonist radioligand [³H]PSB-603 (spec. activity: 79 Ci/mmol) to detect A2BARs were performed as previously described. Competition binding experiments at various membrane preparations of native (HeLa, Jurkat-T) and recombinant cells (CHO or HEK cells expressing A2A and/or A2BARs) using the A2A-selective antagonist radioligand [^3H]MSX-2 (spec. activity: 85 Ci/mmol) to detect A2AARs were performed in analogy to described procedures. […] Non-specific binding was determined in the presence of unlabeled MSX-2, or CGS-15943, respectively (10 µM), both giving identical results.
(§3) The assay was performed in a final volume of 400 µl containing 4 µl of test compound dissolved in DMSO, 196 µl buffer (50 mM Tris-HCl, 10 mM MgCl2 pH 7.4), 100 µl of radioligand solution in the same buffer (5 nM), and 100 µl of membrane preparation (10 to 200 µg of protein per vial, 2 U/ml ADA 20 min incubation at rt). […] All data were analyzed with GraphPad Prism, Version 4 (GraphPad Inc., La Jolla, CA).

[21] = biological target: T3, human A2AAR; assay: Radioligand affinity at HEK or CHO-A2A; assay type: binding; conditions: saturation
Experimental: as §2, §3

[22] = biological target: T7, HA-tagged human A2AAR (Homo sapiens, UniProt P29274); assay: Radioligand affinity at CHO-HA-A2A; assay type: binding; conditions: homologous competition
T7 construct: HA; expressed in transfected cells
T7 sequence (P29274 whole entry): as the sequence (P29274 whole entry) above

[23] = biological target: T8, A2A and A2BARs in Jurkat-T cell membranes (Homo sapiens, UniProt P29274+P29275); assay: Radioligand affinity at Jurkat-T cells (A2B ≥ A2A); assay type: binding; conditions: homologous competition
T8 construct: Human Jurkat-T cells natively expressing A2A and A2BARs; endogenous in cells; host or cells: Jurkat-T
T8 sequence (P29274 whole entry, one chain of several): as the sequence (P29274 whole entry) above
Experimental: as §2
as §3, with “CA). […]” for “CA).”

[24] = biological target: T9, A2A and A2BARs in HeLa cell membranes (Homo sapiens, UniProt P29274+P29275); assay: Radioligand affinity at HeLa cells (A2B ≥ A2A); assay type: binding; conditions: homologous competition, read-out: KD ± SEM
T9 construct: HeLa cells natively expressing human A2A and A2BARs; endogenous in cells; host or cells: HeLa
T9 sequence (P29274 whole entry, one chain of several): as the sequence (P29274 whole entry) above
Experimental: as §2, §3

[25] = biological target: A2A and A2BARs in intact primary human lymphocytes; assay: Radioligand affinity at intact primary human T-lymphocytes, unstimulated; assay type: binding; conditions: T-Lymphocytes unstimulated (A2A > A2B), intact cells, homologous competition
[26] = biological target: A2A and A2BARs in intact primary human lymphocytes; assay: Radioligand affinity at intact primary human T-lymphocytes, stimulated with phytohemagglutinin; assay type: binding; conditions: T-Lymphocytes stimulated (A2A > A2B); intact cells; homologous competition; read-out: KD ± SEM
[27] = biological target: T6, human A2BAR; parameters: expressed in transfected cells; method as in ref [12] (a number printed in a supplementary file, which may have a reference list of its own: not looked up in the article's list); conditions: HEK or CHO-A2B (A2B); saturation; ref [12]; read-out: KD ± SEM; cited from earlier work
[28] = ref Gao Z, et al. Biochem Pharmacol. 2014, 90: 297-306. [17]
[29] = ref Hinz S, et al. J Pharmacol Exp Ther. 2014, 3: 427-436. [15]
[30] = ref Cooper J, et al. Br J Pharmacol. 1997, 122: 546-550. [18]
[31] = ref Phelps PT, et al. Eur J Pharmacol. 2006, 536: 28-37. [20]

N#Cc1c(N)nc(SCC(N)=O)c(C#N)c1-c1ccc(OCC2CC2)cc1 [BAY60-6583]
Ki [1]: 2960 nM | Ki [2]: 212 ± 58 nM | EC50 ([3]; cAMP accumulation, CHO-A2A): > 10000 nM | change in cAMP accumulation with increasing amounts of transiently transfected A2BAR [4]: significant increase in cAMP accumulation | change in DMR signal with increasing amounts of transiently transfected A2BAR [5]: time-dependent increase in the signal | EC50 (result in words) [6]: low signal | EC50 [7, 28]: 296 nM | EC50 [8, 28]: 6.14 nM | EC50 [8, 29]: 505 nM | EC50 [9, 28]: 43 nM | EC50 ([10]; ref Wei Q): 7.2 nM | induction of cAMP accumulation [11]: concentration-dependently induced cAMP accumulation | Ki [12]: 212 ± 20 nM | EC50 [13]: 165 nM

CCCn1c(=O)c2[nH]c(C3CCCC3)nc2n(CCC)c1=O [DPCPX, 8-cyclopentyl-1,3-dipropylxanthine]
A2B antagonist IC50/KB [7, 30]: DPCPX: 97.7 nM

CCCn1c(=O)c2[nH]c(-c3ccc(OCC(=O)Nc4ccc(C#N)cc4)cc3)nc2n(CCC)c1=O [MRS1754]
A2B antagonist IC50/KB [9, 31]: MRS1754: 665 nM

C#CCn1c(=O)c2c(nc(C=Cc3cccc(OC)c3)n2C)n(CCCO)c1=O [MSX-2, 3-(3-hydroxypropyl)-7-methyl-8-(m-methoxystyryl)-1-propargylxanthine]
Ki [14]: 5 ± 0.6 nM | Kb ([3]; read-out: KB-value ± SEM): 14.5 ± 3.6 nM | Ki ([15]; ref [13]): 2.03 nM | Ki [16]: > 1000 nM

CCCn1c(=O)[nH]c2nc(-c3ccc(S(=O)(=O)N4CCN(c5ccc(Cl)cc5)CC4)cc3)[nH]c2c1=O [PSB-603, 8-(4-(4-(4-chlorophenyl)-piperazine-1-sulfonyl)phenyl)-1-propylxanthine]
Ki [1]: 1.43 ± 0.58 nM | Ki [2]: 1.43 ± 0.73 nM | Kb [17]: 0.358 nM | Kb [18]: 0.871 nM | Ki ([15]; ref [12]): > 10000 nM | Kb ([10]; versus BAY60-6583, ref Wei Q, read-out: A2B antagonist KB): 1 nM

Nc1nc2c(cnn2CCc2ccccc2)c2nc(-c3ccco3)nn12 [SCH58261]
A2A antagonist IC50/KB [9, 31]: SCH58261:405 nM | block of NECA-induced increase in coronary flow [19]: blocked NECA-induced increase in coronary flow to a higher degree in KO than in WT mice

CCNC(=O)[C@H]1O[C@@H](n2cnc3c(N)nc(NCCc4ccc(CCC(=O)O)cc4)nc32)[C@H](O)[C@@H]1O [[³H]CGS-21680]
KD ± SEM [20]: No binding

CCCn1c(=O)[nH]c2nc(-c3ccc(S(=O)(=O)N4CCN(c5ccc(Cl)cc5)CC4)cc3)[nH]c2c1=O [[³H]PSB-603]
KD ± SEM [20]: no high-affinity binding | KD ± SEM [21]: no high-affinity binding | KD ± SEM [22]: no high-affinity binding | KD ± SEM [23]: high affinity binding | Kd ([23]; read-out: KD ± SEM): 2.09 ± 0.72 nM | Kd [24]: 2.49 ± 1.39 nM | KD ± SEM [25]: High affinity binding | Kd ([25]; read-out: KD ± SEM): 0.68 ± 0.242 nM | Kd [26]: 0.241 ± 0.108 nM | Kd [27]: 0.403 ± 0.188 nM

Nc1ncnc2c1ncn2[C@@H]1O[C@H](CO)[C@@H](O)[C@H]1O [adenosine]
EC50 [7, 30]: 65000 nM | EC50 [8, 29]: 2510 nM

Source: paper PMC5862601 (Oncotarget, 2018)
